Key:
[1] = Singlet oxygen generation (DPBF absorption, 520 nm laser); format: physicochemical; conditions: for Singlet oxygen quantum yield (%): DPBF 40 μM in EtOH, 520 nm laser 0.3 mW
U87 glioblastoma cells = assay: Phototoxicity assay in U87 glioblastoma cells, Annexin V-Pacific Blue staining (fluorescence microscopy, flow cytometry); format: cell-based
Description: Compound was administered at 100 μM and illuminated under 520 nm light. Annexin V-Pacific Blue was used as a stain for dead cells. Red fluorescence was used to confirm uptake of PS-SCOTfluor-13 into cells.
Phototoxicity assays of PS-SCOTfluor-13 and 2-NBDG in U87 glioblastoma cells were determined. Compounds administered at 100 μM and illuminated under 520 nm light. Annexin V-Pacific Blue was used as a stain for dead cells. Red fluorescence (for PS-SCOTfluor-13) and green fluorescence (for 2-NBDG) was used to confirm uptake of the compounds into cells.

[2] = tested on: U87-mCrimson glioblastoma cells; assay: U87-mCrimson glioblastoma transplant in zebrafish embryos, 520 nm irradiation; format: in vivo; conditions: compound injected, then 520 nm light
Description: Briefly, U87-mCrimson glioblastoma cells were injected into the yolk sac of zebrafish embryos. Cells were effectively transplanted as shown by fluorescence microscopy images. Zebrafish were then irradiated with 520 nm light alone or injected with PS-SCOTfluor-13 and then irradiated with 520 nm light.

[3] = 100 μM, illuminated under 520 nm light

| SMILES | Singlet oxygen quantum yield (%) [1] | Cell death as detected by Annexin V staining (fluorescence microscopy) (U87 glioblastoma cells; [3]) | other results |
| --- | --- | --- | --- |
| O=[N+]([O-])c1ccc(N[C@H]2C(O)O[C@H](CO)[C@@H](O)[C@@H]2O)c2nonc12 (stereo partly drawn) [2-NBDG, reference compound] | <1% | does not kill the cells after illumination | Uptake into U87 glioblastoma cells (fluorescence) (U87 glioblastoma cells; 100 μM): uptaken by U87 glioblastoma cells |
| CCN(CC)c1ccc([N+](=O)[O-])c2n[se]nc12 [PS-SCOTfluor-5, N,N-diethyl-7-nitrobenzo[c][1,2,5]selenadiazol-4-amine] | 3% |  |  |
| CCN(CC)c1cc(I)c([N+](=O)[O-])c2n[se]nc12 [PS-SCOTfluor-6, N,N-diethyl-6-iodo-7-nitrobenzo[c][1,2,5]selenadiazol-4-amine] | 5% |  |  |
| O=[N+]([O-])c1ccc(N[C@@H]2[C@@H](O)[C@H](O)[C@@H](CO)O[C@H]2O)c2nsnc12 [PS-SCOTfluor-13, (2R,3R,4R,5S,6R)-6-(hydroxymethyl)-3-((7-nitrobenzo[c][1,2,5]thiadiazol-4-yl)amino)tetrahydro-2H-pyran-2,4,5-triol] | 24% | kills U87 glioblastoma cells only after irradiation with light | Activity as photosensitizer (summary of Table 1) [1]: high activity as photosensitizer; Cell death as detected by Annexin V staining (flow cytometry) (U87 glioblastoma cells; [3]): kills U87 glioblastoma cells only after irradiation with light but not without light; Effect of excess unlabelled glucose on uptake and cell death (U87 glioblastoma cells; competition with excess unlabelled glucose, Annexin V staining): reduces the uptake of PS-SCOTfluor-13 and subsequently cell death; Glioblastoma transplant (fluorescence of mCrimson reporter) [2]: reduction of the glioblastoma transplant |
| NC(CNc1ccc([N+](=O)[O-])c2n[se]nc12)C(=O)O (stereo not drawn) [PS-SCOTfluor-19, 2-amino-3-((7-nitrobenzo[c][1,2,5]selenadiazol-4-yl)amino)propanoic acid] | 10% |  |  |

— patent publication US11746094B2, “Small molecule photosensitizers for photodynamic therapy” (The University Court of the University of Edinburgh, priority 2019, dated 2023)
